Data as given in patent publication US10487093B2, “Heterocyclic compounds, in particular 2-oxo-4,4,5,5,6,6,7,7-octahydrobenzoxazole derivatives, and their use as antibacterial compounds” (priority 2016, dated 2019).

System: Gram-negative and Gram-positive bacterial strains
Format: cell-based
Conditions: including those which are resistant to fluoroquinolone antibiotics and other antibiotics

Compound	activity against all strains of A. baumannii and E. coli tested (in words)
COc1ccc2ncc(=O)n(CCN[C@H]3CCC4C(C3)OC(=O)N4c3ccc4c(n3)NC(=O)CO4)c2n1 (stereo in doubt) [Compound 45, (3aS,6S,7aS)-6-[(2-{6-methoxy-3-oxo-3H,4H-pyrido[2,3-b]pyrazin-4-yl}ethyl)amino]-3-{3-oxo-2H,3H,4H-pyrido[3,2-b][1,4]oxazin-6-yl}-octahydro-1,3-benzoxazol-2-one]	excellent activity
COc1ccc2ccc(=O)n(CCN[C@H]3CC[C@H]4[C@@H](C3)OC(=O)N4c3ccc4c(n3)NC(=O)CO4)c2n1 [Compound 4, 1-(2-{[(3aS,6S,7aR)-2-oxo-3-{3-oxo-2H,3H,4H-pyrido[3,2-b][1,4]oxazin-6-yl}-octahydro-1,3-benzoxazol-6-yl]amino}ethyl)-7-methoxy-1,2-dihydro-1,8-naphthyridin-2-one]	excellent activity
COc1ccc2ncc(=O)n(CCN[C@@H]3CC[C@@H]4[C@@H](C3)OC(=O)N4c3ccc4c(n3)NC(=O)CO4)c2c1 [Compound 21, 1-(2-{[(3aR,6R,7aR)-2-oxo-3-{3-oxo-2H,3H,4H-pyrido[3,2-b][1,4]oxazin-6-yl}-octahydro-1,3-benzoxazol-6-yl]amino}ethyl)-7-methoxy-1,2-dihydroquinoxalin-2-one]	excellent activity
O=C1COc2ccc(N3C(=O)O[C@@H]4C[C@@H](NCCn5c(=O)cnc6cc(F)c(F)cc65)CC[C@@H]43)nc2N1 [Compound 22, 1-(2-{[(3aS,6S,7aR)-2-oxo-3-{3-oxo-2H,3H,4H-pyrido[3,2-b][1,4]oxazin-6-yl}-octahydro-1,3-benzoxazol-6-yl]amino}ethyl)-6,7-difluoro-1,2-dihydroquinoxalin-2-one]	excellent activity
O=C1COc2ccc(N3C(=O)O[C@H]4C[C@@H](NCCn5c(=O)cnc6cc(F)c(F)cc65)CC[C@@H]43)nc2N1 [Compound 34, 1-(2-{[(3aS,6S,7aS)-2-oxo-3-{3-oxo-2H,3H,4H-pyrido[3,2-b][1,4]oxazin-6-yl}-octahydro-1,3-benzoxazol-6-yl]amino}ethyl)-6,7-difluoro-1,2-dihydroquinoxalin-2-one]	excellent activity
N#Cc1cnc2ccc(=O)n(CCN[C@H]3CC[C@H]4[C@H](C3)OC(=O)N4c3ccc4c(n3)NC(=O)CO4)c2c1 [Compound 55, 5-(2-{[(3aS,6S,7aS)-2-oxo-3-{3-oxo-2H,3H,4H-pyrido[3,2-b][1,4]oxazin-6-yl}-octahydro-1,3-benzoxazol-6-yl]amino}ethyl)-6-oxo-5,6-dihydro-1,5-naphthyridine-3-carbonitrile]	excellent activity
N#Cc1ccc2ccc(=O)n(CCN[C@H]3CC[C@H]4[C@H](C3)OC(=O)N4c3ccc4c(n3)NC(=O)CO4)c2c1 [Compound 56, 1-(2-{[(3aS,6S,7aS)-2-oxo-3-{3-oxo-2H,3H,4H-pyrido[3,2-b][1,4]oxazin-6-yl}-octahydro-1,3-benzoxazol-6-yl]amino}ethyl)-2-oxo-1,2-dihydroquinoline-7-carbonitrile]	excellent activity
N#Cc1ccc2ncc(=O)n(CCN[C@@H]3CC[C@@H]4[C@@H](C3)OC(=O)N4c3ccc4c(n3)NC(=O)CO4)c2c1 [Compound 68, 4-(2-{[(3aR,6R,7aR)-2-oxo-3-{3-oxo-2H,3H,4H-pyrido[3,2-b][1,4]oxazin-6-yl}-octahydro-1,3-benzoxazol-6-yl]amino}ethyl)-3-oxo-3,4-dihydroquinoxaline-6-carbonitrile]	excellent activity
COc1cnc2ccc(=O)n(CCN[C@@H]3CC[C@@H]4[C@@H](C3)OC(=O)N4c3ccc4c(n3)NC(=O)CO4)c2c1 [Compound 69, 1-(2-{[(3aR,6R,7aR)-2-oxo-3-{3-oxo-2H,3H,4H-pyrido[3,2-b][1,4]oxazin-6-yl}-octahydro-1,3-benzoxazol-6-yl]amino}ethyl)-7-methoxy-1,2-dihydro-1,5-naphthyridin-2-one]	excellent activity
N#Cc1cnc2ccc(=O)n(CCN[C@H]3CC[C@H]4[C@H](C3)OC(=O)N4c3ccc4c(n3)NC(=O)CS4)c2c1 [Compound 77, 5-(2-{[(3aS,6S,7aS)-2-oxo-3-{3-oxo-2H,3H,4H-pyrido[3,2-b][1,4]thiazin-6-yl}-octahydro-1,3-benzoxazol-6-yl]amino}ethyl)-6-oxo-5,6-dihydro-1,5-naphthyridine-3-carbonitrile]	excellent activity
COc1cccc(-c2cccc(CN[C@@H]3CC[C@@H]4[C@@H](C3)OC(=O)N4c3ccc4c(n3)NC(=O)CO4)c2)n1 [Compound 80, (3aR,6R,7aR)-6-({[3-(6-methoxypyridin-2-yl)phenyl]methyl}amino)-3-{3-oxo-2H,3H,4H-pyrido[3,2-b][1,4]oxazin-6-yl}-octahydro-1,3-benzoxazol-2-one]	excellent activity
COc1cnc2ccc(=O)n(CCN[C@H]3CC[C@H]4[C@H](C3)OC(=O)N4c3ccc4c(n3)NC(=O)CS4)c2c1 [Compound 81, 1-(2-{[(3aS,6S,7aS)-2-oxo-3-{3-oxo-2H,3H,4H-pyrido[3,2-b][1,4]thiazin-6-yl}-octahydro-1,3-benzoxazol-6-yl]amino}ethyl)-7-methoxy-1,2-dihydro-1,5-naphthyridin-2-one]	excellent activity
COc1ccc2ccc(=O)n(CCCN[C@H]3CC[C@H]4[C@H](C3)OC(=O)N4c3ccc4c(n3)NC(=O)CS4)c2n1 [Compound 85, 1-(3-{[(3aS,6S,7aS)-2-oxo-3-{3-oxo-2H,3H,4H-pyrido[3,2-b][1,4]thiazin-6-yl}-octahydro-1,3-benzoxazol-6-yl]amino}propyl)-7-methoxy-1,2-dihydro-1,8-naphthyridin-2-one]	excellent activity
O=C1COc2ccc(N3C(=O)O[C@@H]4C[C@H](NCCCn5c(=O)cnc6cc(F)c(F)cc65)CC[C@H]43)nc2N1 [Compound 88, 1-(3-{[(3aR,6R,7aR)-2-oxo-3-{3-oxo-2H,3H,4H-pyrido[3,2-b][1,4]oxazin-6-yl}-octahydro-1,3-benzoxazol-6-yl]amino}propyl)-6,7-difluoro-1,2-dihydroquinoxalin-2-one]	excellent activity
O=C1COc2ccc(N3C(=O)O[C@H]4C[C@@H](NCCCn5c(=O)cnc6cc(F)c(F)cc65)CC[C@@H]43)nc2N1 [Compound 90, 1-(3-{[(3aS,6S,7aS)-2-oxo-3-{3-oxo-2H,3H,4H-pyrido[3,2-b][1,4]oxazin-6-yl}-octahydro-1,3-benzoxazol-6-yl]amino}propyl)-6,7-difluoro-1,2-dihydroquinoxalin-2-one]	excellent activity
O=C1COc2ccc(N3C(=O)O[C@H]4C[C@@H](NCCn5c(=O)ccc6ccc(OC(F)F)cc65)CC[C@@H]43)nc2N1 [Compound 101, 1-(2-{[(3aS,6S,7aS)-2-oxo-3-{3-oxo-2H,3H,4H-pyrido[3,2-b][1,4]oxazin-6-yl}-octahydro-1,3-benzoxazol-6-yl]amino}ethyl)-7-(difluoromethoxy)-1,2-dihydro quinolin-2-one]	excellent activity
COc1ccc2ccc(=O)n(CCN[C@H]3CC[C@H]4[C@H](C3)OC(=O)N4c3ccc4c(n3)NC(=O)CO4)c2c1 [Compound 102, 1-(2-{[(3aS,6S,7aS)-2-oxo-3-{3-oxo-2H,3H,4H-pyrido[3,2-b][1,4]oxazin-6-yl}-octahydro-1,3-benzoxazol-6-yl]amino}ethyl)-7-methoxy-1,2-dihydroquinolin-2-one]	excellent activity
N#Cc1cccc(-c2cccc(CN[C@H]3CC[C@H]4[C@H](C3)OC(=O)N4c3ccc4c(n3)NC(=O)CO4)n2)c1 [Compound 105, 3-[6-({[(3aS,6S,7aS)-2-oxo-3-{3-oxo-2H,3H,4H-pyrido[3,2-b][1,4]oxazin-6-yl}-octahydro-1,3-benzoxazol-6-yl]amino}methyl)pyridin-2-yl]benzonitrile]	excellent activity
